Starred links: 1 amine or outer side, 2 acyl side, 3 side chain; linkers in the order of their positions; H or OH if unused. Non-standard residues stand in square brackets, D forms with d. Residues, ends and D or L forms follow the SMILES beside them. *: point of attachment. NH(2-pyrrolidin-1-ylethyl) = C1CCN(CCN*)C1; dPhe(4-Cl) = N[C@H](Cc1ccc(Cl)cc1)C(=O)O; d2Nal = N[C@H](Cc1ccc2ccccc2c1)C(=O)O; NMeY = CN[C@@H](Cc1ccc(O)cc1)C(=O)O; Ethylenediamine = C(CN[*:2])N[*:1]; d3Pal = N[C@H](Cc1cccnc1)C(=O)O; Nicotinoyl = O=C(c1cccnc1)*; NH(CH2)6NH2 = NCCCCCCN*; NH(CH2)4NH2 = NCCCCN*; NHCH2CH2OH = OCCN*; NEt2 = CCN(CC)*; NHBu = CCCCN*
Molecular target: T1, LH release from rat pituitary cells (Rattus norvegicus, UniProt P30969)
T1 sequence (P30969 1-327): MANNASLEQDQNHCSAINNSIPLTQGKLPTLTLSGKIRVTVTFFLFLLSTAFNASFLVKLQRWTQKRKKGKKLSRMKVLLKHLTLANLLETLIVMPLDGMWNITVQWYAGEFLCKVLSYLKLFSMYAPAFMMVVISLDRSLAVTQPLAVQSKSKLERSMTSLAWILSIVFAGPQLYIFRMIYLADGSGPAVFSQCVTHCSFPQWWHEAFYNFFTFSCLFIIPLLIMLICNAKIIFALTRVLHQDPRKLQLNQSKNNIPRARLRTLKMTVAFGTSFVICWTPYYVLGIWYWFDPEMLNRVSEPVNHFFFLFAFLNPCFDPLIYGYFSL
Experiment: in vitro inhibition of LH release from rat pituitary cells (pA2)
Assay type: cell-based
Details: pA2 = negative logarithm of antagonist concentration required to shift the response curve of the agonist leuprolide to two-fold higher concentration
Experimental: Representative compounds of the present invention were evaluated in vitro for inhibition of LH release from rat pituitary cells (pA2). Methods for the assay procedures arc described by F. Haviv, et al. J. Med. Chem., 32:2340-2344 (1989). Values of pA2 are the negative logarithms of the concentration of the particular antagonist test compound required to shift the response curve produced by the agonist leuprolide to two-fold higher concentration. Typically values of 7.0 or greater are indicative of good LHRH antagonist potency, with values of 8.0 or greater being preferred. Leuprolide LHRH agonist, disclosed and claimed in U.S. Pat. No. 4,005,063, has the structure 5-oxo-Pro^1 -His^2 -Trp^3 -Ser^4 -Tyr^5 -D-Leu^6 -Leu^7 -Arg^8 -Pro^9 -NHEt.

Compound | LHRH antagonist potency (pA2)
CCCCNC(=O)[C@H](CC(C)C)NC(=O)[C@@H](CCCCNC(=O)c1cccnc1)NC(=O)[C@H](Cc1ccc(O)cc1)N(C)C(=O)[C@H](CO)NC(=O)[C@@H](Cc1cccnc1)NC(=O)[C@@H](Cc1ccc(Cl)cc1)NC(=O)[C@@H](Cc1ccc2ccccc2c1)NC(C)=O [Example 1, NAcD2Nal-D4ClPhe-D3Pal-Ser-NMeTyr-DLys(Nic)-Leu-NH-nBu] (Ac-[d2Nal][dPhe(4-Cl)][d3Pal]S[NMeY][dK](Nicotinoyl)L-NHBu) | 7.90
CC(=O)N[C@H](Cc1ccc2ccccc2c1)C(=O)N[C@H](Cc1ccc(Cl)cc1)C(=O)N[C@H](Cc1cccnc1)C(=O)N[C@@H](CO)C(=O)N(C)[C@@H](Cc1ccc(O)cc1)C(=O)N[C@H](CCCCNC(=O)c1cccnc1)C(=O)N[C@@H](CC(C)C)C(=O)NCCN [Example 2, NAcD2Nal-D4ClPhe-D3Pal-Ser-NMeTyr-DLys(Nic)-Leu-NH--(CH2)2 NH2] (Ac-[d2Nal][dPhe(4-Cl)][d3Pal]S[NMeY][dK](Nicotinoyl)L-Ethylenediamine) | 9.58
CC(=O)N[C@H](Cc1ccc2ccccc2c1)C(=O)N[C@H](Cc1ccc(Cl)cc1)C(=O)N[C@H](Cc1cccnc1)C(=O)N[C@@H](CO)C(=O)N(C)[C@@H](Cc1ccc(O)cc1)C(=O)N[C@H](CCCCNC(=O)c1cccnc1)C(=O)N[C@@H](CC(C)C)C(=O)NCCN1CCCC1 [Example 3, NAcD2Nal-D4ClPhe-D3Pal-Ser-NMeTyr-DLys(Nic)-Leu-NH--(CH2)2 -(1-pyrrolidine)] (Ac-[d2Nal][dPhe(4-Cl)][d3Pal]S[NMeY][dK](Nicotinoyl)L-{NH(2-pyrrolidin-1-ylethyl)}) | 11.27
CCN(CC)C(=O)[C@H](CC(C)C)NC(=O)[C@@H](CCCCNC(=O)c1cccnc1)NC(=O)[C@H](Cc1ccc(O)cc1)N(C)C(=O)[C@H](CO)NC(=O)[C@@H](Cc1cccnc1)NC(=O)[C@@H](Cc1ccc(Cl)cc1)NC(=O)[C@@H](Cc1ccc2ccccc2c1)NC(C)=O [Example 4, NAcD2Nal-D4ClPhe-D3Pal-Ser-NMeTyr-DLys(Nic)-Leu-N(CH2 CH3)2] (Ac-[d2Nal][dPhe(4-Cl)][d3Pal]S[NMeY][dK](Nicotinoyl)L-NEt2) | 7.96
CC(=O)N[C@H](Cc1ccc2ccccc2c1)C(=O)N[C@H](Cc1ccc(Cl)cc1)C(=O)N[C@H](Cc1cccnc1)C(=O)N[C@@H](CO)C(=O)N(C)[C@@H](Cc1ccc(O)cc1)C(=O)N[C@H](CCCCNC(=O)c1cccnc1)C(=O)N[C@@H](CC(C)C)C(=O)NCCCCCCN [Example 5, NAcD2Nal-D4ClPhe-D3Pal-Ser-NMeTyr-DLys(Nic)-Leu-NH--(CH2)6 NH2] (Ac-[d2Nal][dPhe(4-Cl)][d3Pal]S[NMeY][dK](Nicotinoyl)L-{NH(CH2)6NH2}) | 9.91
CC(=O)N[C@H](Cc1ccc2ccccc2c1)C(=O)N[C@H](Cc1ccc(Cl)cc1)C(=O)N[C@H](Cc1cccnc1)C(=O)N[C@@H](CO)C(=O)N(C)[C@@H](Cc1ccc(O)cc1)C(=O)N[C@H](CCCCNC(=O)c1cccnc1)C(=O)N[C@@H](CC(C)C)C(=O)NCCCCN [Example 6, NAcD2Nal-D4ClPhe-D3Pal-Ser-NMeTyr-DLys(Nic)-Leu-NH--(CH2)4 NH2] (Ac-[d2Nal][dPhe(4-Cl)][d3Pal]S[NMeY][dK](Nicotinoyl)L-{NH(CH2)4NH2}) | 9.90
CC(=O)N[C@H](Cc1ccc2ccccc2c1)C(=O)N[C@H](Cc1ccc(Cl)cc1)C(=O)N[C@H](Cc1cccnc1)C(=O)N[C@@H](CO)C(=O)N(C)[C@@H](Cc1ccc(O)cc1)C(=O)N[C@H](CCCCNC(=O)c1cccnc1)C(=O)N[C@@H](CC(C)C)C(=O)NCCO [Example 7, NAcD2Nal-D4ClPhe-D3Pal-Ser-NMeTyr-DLys(Nic)-Leu-NH--(CH2)2 OH] (Ac-[d2Nal][dPhe(4-Cl)][d3Pal]S[NMeY][dK](Nicotinoyl)L-NHCH2CH2OH) | 8.95
